How the values were obtained:
Chenopodium album = assay: Field soil treatment test (Test Example 2); assay type: in vivo; details: soil spray after seeding, wettable powder, active ingredient 10 g/a, 21st day from the treatment
Experimental: (§1) The herbicidal effect was evaluated in terms of herbicidal rate obtained from the following equation: Herbicidal rate (%)=[1−(Weight of weeds above the ground in a treated plot)/(Weight of weeds above the ground in a non-treated plot)]×100 and was expressed by herbicidal index according to the following criteria. [table] Alluvial soil from a field was put in a resin-made vat having an area of 200 cm^2. After fertilization, the seeds of Digitaria ciliaris, Chenopodium album and Polygonum lapathifolium were cast on the soil and uniformly covered with the soil. The wettable powder obtained in Formulation Example 1 was diluted with water and a predetermined amount thereof was sprayed uniformly to the soil by means of a small-sized power pressure spray so as to give 10 g of the active ingredient per an are. Thereafter, cultivation was further continued in the greenhouse, and the herbicidal effect was examined on the 21st day from the treatment. The results obtained are shown in Table 8 (the compound numbers in Table 8 correspond to those in Tables 1 to 6).

Polygonum lapathifolium = assay: Field soil treatment test (Test Example 2); assay type: in vivo; details: soil spray after seeding, wettable powder, active ingredient 10 g/a, 21st day from the treatment
Experimental: as §1

Digitaria ciliaris = assay: Field soil treatment test (Test Example 2); assay type: in vivo; details: soil spray after seeding, wettable powder, active ingredient 10 g/a, 21st day from the treatment
Experimental: as §1

Scirpus juncoides = assay: Submerged foliar treatment test (Test Example 3); assay type: in vivo; details: water depth 3 cm, cotyledon to 1-leaf stage, wettable powder, active ingredient 10 g/a, 28th day from the treatment
Experimental: (§2) The herbicidal effect was evaluated in terms of herbicidal rate obtained from the following equation: Herbicidal rate (%)=[1−(Weight of weeds above the ground in a treated plot)/(Weight of weeds above the ground in a non-treated plot)]×100
(§3) and was expressed by herbicidal index according to the following criteria.
(§4) Alluvial soil from a paddy field was put in a resin-made vat having an area of 200 cm^2. After fertilization, seeds of Echinochloa oryzicola, Rotala indica and Scirpus juncoides were cast on the soil and uniformly covered with the soil, and water was poured onto the soil to keep a water depth of 3 cm. Then, cultivation was continued in a greenhouse, and when the weeds to be tested reached the cotyledon stage to 1-leaf stage, the wettable powder obtained in Formulation Example 1 was diluted with water and a predetermined amount thereof was added dropwise uniformly to the weeds by means of a pipette to give 10 g of the active ingredient per an are. Thereafter, cultivation was further continued in the greenhouse, and the herbicidal effect was examined on the 28th day from the treatment. The results obtained are shown in Table 9 (the compound numbers in Table 9 correspond to those in Tables 1 to 6).

Rotala indica = assay: Submerged foliar treatment test (Test Example 3); assay type: in vivo; details: water depth 3 cm, cotyledon to 1-leaf stage, wettable powder, active ingredient 10 g/a, 28th day from the treatment
Experimental: as §2, §3, §4

Echinochloa oryzicola = assay: Submerged foliar treatment test (Test Example 3); assay type: in vivo; details: water depth 3 cm, cotyledon to 1-leaf stage, wettable powder, active ingredient 10 g/a, 28th day from the treatment
Experimental: as §2, §3, §4

For `Cc1cc2c(-c3cccc(C(F)(F)F)c3)nc(OCC(F)(F)C(F)(F)F)nc2s1` [6-101], which “Herbicidal effect Chenopodium album (herbicidal index)” value (Chenopodium album) is on record?
The value was 5 (91 to 100).

And the “Herbicidal effect Polygonum lapathifolium (herbicidal index)” value (Polygonum lapathifolium)?
Its value is 4 (71 to 90).

What about the “Herbicidal effect Digitaria ciliaris (herbicidal index)” value (Digitaria ciliaris) of the same compound?
The value was 5 (91 to 100).

Which melting point does the source give for `Cc1cc2c(-c3cccc(C(F)(F)F)c3)nc(C(=O)O)nc2s1` [Compound No. 6-180, 6-methyl-4-[3-(trifluoromethyl)phenyl]thieno[2,3-d]pyrimidine-2-carboxylic acid] here?
The melting point was 226 to 227 °C (dec.).

With `Cc1cc2c(-c3cccc(C(F)(F)F)c3)nc(OC(C)C(F)(F)F)nc2s1` (centres unmarked) [6-100] as the compound, how does the “Herbicidal effect Chenopodium album (herbicidal index)” value (Chenopodium album) read?
Its value is 5 (91 to 100).

What about the “Herbicidal effect Polygonum lapathifolium (herbicidal index)” value (Polygonum lapathifolium) of the same compound?
The value was 5 (91 to 100).

What about the “Herbicidal effect Digitaria ciliaris (herbicidal index)” value (Digitaria ciliaris) of the same compound?
The value was 5 (91 to 100).

With `Cc1cc2c(-c3cccc(SC(F)(F)F)c3)nc(OCC(F)(F)C(F)F)nc2s1` [6-119] as the compound, how does the “Herbicidal effect Chenopodium album (herbicidal index)” value (Chenopodium album) read?
The value was 5 (91 to 100).

What about the “Herbicidal effect Polygonum lapathifolium (herbicidal index)” value (Polygonum lapathifolium) of the same compound?
Its value is 5 (91 to 100).

And the “Herbicidal effect Digitaria ciliaris (herbicidal index)” value (Digitaria ciliaris)?
Its value is 5 (91 to 100).

For `Cc1cc2nc(Cl)nc(-c3cccc(C(F)(F)F)c3)c2s1` [Compound No. 5-34, 2-chloro-6-methyl-4-[3-(trifluoromethyl)phenyl]thieno[3,2-d]pyrimidine], which melting point is on record?
The melting point was 174 to 176 °C (dec.).

Which results are given for `CCOc1nc(-c2ccccc2C(F)(F)F)c2cc(C)sc2n1` [6-43]?
Herbicidal effect Chenopodium album (herbicidal index) (Chenopodium album): 5 (91 to 100); Herbicidal effect Polygonum lapathifolium (herbicidal index) (Polygonum lapathifolium): 2 (31 to 50); Herbicidal effect Digitaria ciliaris (herbicidal index) (Digitaria ciliaris): 5 (91 to 100)

Which results are given for `Cc1cc2c(-c3cccc(OC(F)F)c3)nc(OCC(F)(F)F)nc2s1` [6-121]?
Herbicidal effect Chenopodium album (herbicidal index) (Chenopodium album): 5 (91 to 100); Herbicidal effect Polygonum lapathifolium (herbicidal index) (Polygonum lapathifolium): 5 (91 to 100); Herbicidal effect Digitaria ciliaris (herbicidal index) (Digitaria ciliaris): 5 (91 to 100)

What does the source list for `Cc1cc2c(-c3cccc(OC(F)(F)F)c3)nc(OCC(F)(F)F)nc2s1` [6-108]?
Herbicidal effect Chenopodium album (herbicidal index) (Chenopodium album): 5 (91 to 100); Herbicidal effect Polygonum lapathifolium (herbicidal index) (Polygonum lapathifolium): 5 (91 to 100); Herbicidal effect Digitaria ciliaris (herbicidal index) (Digitaria ciliaris): 5 (91 to 100)

For `Cc1cc2c(-c3cccc(OC(F)(F)F)c3)nc(OC(C)C(F)(F)F)nc2s1` (centres unmarked) [6-110], which “Herbicidal effect Chenopodium album (herbicidal index)” value (Chenopodium album) is on record?
The value was 5 (91 to 100).

And the “Herbicidal effect Polygonum lapathifolium (herbicidal index)” value (Polygonum lapathifolium)?
Its value is 5 (91 to 100).

What about the “Herbicidal effect Digitaria ciliaris (herbicidal index)” value (Digitaria ciliaris) of the same compound?
The value was 5 (91 to 100).

For `Cc1cc2c(-c3cccc(C(F)(F)F)c3)nc(OCC(F)(F)C(F)F)nc2s1` [6-103], which “Herbicidal effect Chenopodium album (herbicidal index)” value (Chenopodium album) is on record?
The value was 5 (91 to 100).

And the “Herbicidal effect Polygonum lapathifolium (herbicidal index)” value (Polygonum lapathifolium)?
The value was 5 (91 to 100).

What about the “Herbicidal effect Digitaria ciliaris (herbicidal index)” value (Digitaria ciliaris) of the same compound?
Its value is 5 (91 to 100).

Which results are given for `Cc1cc2c(-c3cccc(C(F)(F)F)c3)nc(OS(C)(=O)=O)nc2s1` [6-148]?
Herbicidal effect Chenopodium album (herbicidal index) (Chenopodium album): 5 (91 to 100); Herbicidal effect Polygonum lapathifolium (herbicidal index) (Polygonum lapathifolium): 4 (71 to 90); Herbicidal effect Digitaria ciliaris (herbicidal index) (Digitaria ciliaris): 5 (91 to 100)

With `Cc1cc2c(-c3cccc(OC(F)(F)F)c3)nc(OCC(F)(F)C(F)(F)F)nc2s1` [6-111] as the compound, how does the “Herbicidal effect Chenopodium album (herbicidal index)” value (Chenopodium album) read?
The value was 5 (91 to 100).

And the “Herbicidal effect Polygonum lapathifolium (herbicidal index)” value (Polygonum lapathifolium)?
Its value is 5 (91 to 100).

And the “Herbicidal effect Digitaria ciliaris (herbicidal index)” value (Digitaria ciliaris)?
Its value is 5 (91 to 100).

For `C=CCOc1nc(-c2cccc(C(F)(F)F)c2)c2cc(C)sc2n1` [6-88], which “Herbicidal effect Chenopodium album (herbicidal index)” value (Chenopodium album) is on record?
The value was 5 (91 to 100).

And the “Herbicidal effect Polygonum lapathifolium (herbicidal index)” value (Polygonum lapathifolium)?
The value was 5 (91 to 100).

And the “Herbicidal effect Digitaria ciliaris (herbicidal index)” value (Digitaria ciliaris)?
Its value is 5 (91 to 100).

Which “Herbicidal effect Chenopodium album (herbicidal index)” value (Chenopodium album) does the source give for `Cc1cc2c(-c3cccc(C(F)(F)F)c3)nc(OC(C)(C)C)nc2s1` [6-27] here?
Its value is 5 (91 to 100).

And the “Herbicidal effect Polygonum lapathifolium (herbicidal index)” value (Polygonum lapathifolium)?
The value was 4 (71 to 90).

And the “Herbicidal effect Digitaria ciliaris (herbicidal index)” value (Digitaria ciliaris)?
Its value is 5 (91 to 100).

Which results are given for `Cc1cc2c(-c3cccc(OC(F)F)c3)nc(OCC(F)F)nc2s1` [6-122]?
Herbicidal effect Chenopodium album (herbicidal index) (Chenopodium album): 5 (91 to 100); Herbicidal effect Polygonum lapathifolium (herbicidal index) (Polygonum lapathifolium): 5 (91 to 100); Herbicidal effect Digitaria ciliaris (herbicidal index) (Digitaria ciliaris): 5 (91 to 100)

Which “Herbicidal effect Chenopodium album (herbicidal index)” value (Chenopodium album) does the source give for `Cc1cc2c(-c3ccc(F)c(C(F)(F)F)c3)nc(OC(C)C)nc2s1` [6-30] here?
The value was 5 (91 to 100).

What about the “Herbicidal effect Polygonum lapathifolium (herbicidal index)” value (Polygonum lapathifolium) of the same compound?
Its value is 5 (91 to 100).

And the “Herbicidal effect Digitaria ciliaris (herbicidal index)” value (Digitaria ciliaris)?
Its value is 5 (91 to 100).

Which results are given for `Cc1cc2c(-c3cccc(C(F)(F)F)c3)nc(-n3ccc(C(F)(F)F)n3)nc2s1` [6-198]?
Herbicidal effect Chenopodium album (herbicidal index) (Chenopodium album): 5 (91 to 100); Herbicidal effect Polygonum lapathifolium (herbicidal index) (Polygonum lapathifolium): 5 (91 to 100); Herbicidal effect Digitaria ciliaris (herbicidal index) (Digitaria ciliaris): 5 (91 to 100)

Which “Herbicidal effect Chenopodium album (herbicidal index)” value (Chenopodium album) does the source give for `Cc1cc2c(-c3cccc(C(F)(F)F)c3)nc(-n3cccc3)nc2s1` [6-189] here?
Its value is 4 (71 to 90).

What about the “Herbicidal effect Polygonum lapathifolium (herbicidal index)” value (Polygonum lapathifolium) of the same compound?
Its value is 3 (51 to 70).

And the “Herbicidal effect Digitaria ciliaris (herbicidal index)” value (Digitaria ciliaris)?
Its value is 5 (91 to 100).

For `Cc1cc2c(-c3cccc(OC(F)(F)F)c3)nc(OC(C)C)nc2s1` [6-36], which “Herbicidal effect Chenopodium album (herbicidal index)” value (Chenopodium album) is on record?
The value was 5 (91 to 100).

What about the “Herbicidal effect Polygonum lapathifolium (herbicidal index)” value (Polygonum lapathifolium) of the same compound?
Its value is 5 (91 to 100).

What about the “Herbicidal effect Digitaria ciliaris (herbicidal index)” value (Digitaria ciliaris) of the same compound?
Its value is 5 (91 to 100).

With `CC(=O)OC1COCC1Oc1nc(-c2cccc(C(F)(F)F)c2)c2cc(C)sc2n1` (mixture of isomers) [6-188] as the compound, how does the “Herbicidal effect Scirpus juncoides (herbicidal index)” value (Scirpus juncoides) read?
Its value is 4 (71 to 90).

And the “Herbicidal effect Rotala indica (herbicidal index)” value (Rotala indica)?
The value was 5 (91 to 100).

What about the “Herbicidal effect Echinochloa oryzicola (herbicidal index)” value (Echinochloa oryzicola) of the same compound?
Its value is 5 (91 to 100).

For `Cc1cc2c(-c3cccc(Br)c3)nc(OCC(C)(C)C)nc2s1` [6-60], which “Herbicidal effect Scirpus juncoides (herbicidal index)” value (Scirpus juncoides) is on record?
Its value is 5 (91 to 100).

And the “Herbicidal effect Rotala indica (herbicidal index)” value (Rotala indica)?
Its value is 5 (91 to 100).

What about the “Herbicidal effect Echinochloa oryzicola (herbicidal index)” value (Echinochloa oryzicola) of the same compound?
The value was 5 (91 to 100).

Which “Herbicidal effect Scirpus juncoides (herbicidal index)” value (Scirpus juncoides) does the source give for `Cc1cc2c(-c3cccc(C(F)(F)F)c3)nc(OS(=O)(=O)CCl)nc2s1` [6-149] here?
Its value is 4 (71 to 90).

What about the “Herbicidal effect Rotala indica (herbicidal index)” value (Rotala indica) of the same compound?
The value was 5 (91 to 100).

And the “Herbicidal effect Echinochloa oryzicola (herbicidal index)” value (Echinochloa oryzicola)?
The value was 5 (91 to 100).

Which “Herbicidal effect Chenopodium album (herbicidal index)” value (Chenopodium album) does the source give for `Cc1cc2c(-c3cccc(OC(F)(F)F)c3)nc(-n3ccc(C(F)(F)F)n3)nc2s1` [6-199] here?
Its value is 5 (91 to 100).

What about the “Herbicidal effect Polygonum lapathifolium (herbicidal index)” value (Polygonum lapathifolium) of the same compound?
Its value is 5 (91 to 100).

What about the “Herbicidal effect Digitaria ciliaris (herbicidal index)” value (Digitaria ciliaris) of the same compound?
The value was 5 (91 to 100).

What does the source list for `CCOc1nc(-c2cccc(OC(F)(F)F)c2)c2cc(C)sc2n1` [6-34]?
Herbicidal effect Scirpus juncoides (herbicidal index) (Scirpus juncoides): 5 (91 to 100); Herbicidal effect Rotala indica (herbicidal index) (Rotala indica): 5 (91 to 100); Herbicidal effect Echinochloa oryzicola (herbicidal index) (Echinochloa oryzicola): 5 (91 to 100)

With `Cc1cc2c(-c3cccc(OC(F)(F)F)c3)nc(OCCF)nc2s1` [6-107] as the compound, how does the “Herbicidal effect Chenopodium album (herbicidal index)” value (Chenopodium album) read?
Its value is 5 (91 to 100).

What about the “Herbicidal effect Polygonum lapathifolium (herbicidal index)” value (Polygonum lapathifolium) of the same compound?
The value was 5 (91 to 100).

What about the “Herbicidal effect Digitaria ciliaris (herbicidal index)” value (Digitaria ciliaris) of the same compound?
The value was 5 (91 to 100).

Reference: US20070010402A1, “Novel herbicides, usage thereof, novel thienopyrimidine derivatives, intermediates of the same, and process for production thereof” (NIHON NOHYAKU CO., LTD.,, priority 2002, published 2007)
